ChEMBL document CHEMBL5244218, “Quinolone derivatives and their activities against methicillin-resistant Staphylococcus aureus (MRSA)” (Eur J Med Chem, 2018)
In brackets after ≈: the same amount, converted by molar mass.

How the values were obtained:
Assay type in all cases: functional
[1] = test system: Staphylococcus aureus; experiment: Antimicrobial activity against methicillin-resistant Staphylococcus aureus assessed as inhibition of microbial growth
[2] = test system: Staphylococcus aureus; experiment: Antimicrobial activity against methicillin-resistant Staphylococcus aureus incubated for 18 hrs by Agar dilution method
[3] = test system: Staphylococcus aureus; experiment: Antimicrobial activity against methicillin-resistant Staphylococcus aureus incubated for 18 hrs by Alamar blue staining based analysis

SMILES | MIC [1] [µg/mL] | MIC [2] [µg/mL] | other results
COc1ccc(C2=CN3c4c(c(=O)c(C(=O)O)cn4C4CC4)C=C(F)C3N=N2)cc1OC (stereo not given) | 0.25 | – | –
Cn1nc2c(c1N)CN(c1nc3c(cc1F)c(=O)c(C(=O)O)cn3C1CC1)C2 | – | 0.125 (≈ 0.325 µM) | –
Nc1[nH]nc2c1CN(c1c(F)cc3c(=O)c(C(=O)O)cn(CCF)c3c1F)C2 | – | 0.125 (≈ 0.318 µM) | –
COc1cc(OC)cc(O/N=C2/CCN(c3c(F)cc4c(=O)c(C(=O)O)cn(C5CC5)c4c3OC)CC2N)c1 (stereo not given) | – | – | MIC [3]: 0.008 µg/mL (≈ 0.0148 µM)
Nc1[nH]nc2c1CN(c1c(F)cc3c(=O)c(C(=O)O)cn(C4CC4)c3c1C(=O)C(F)F)C2 | – | 0.125 (≈ 0.279 µM) | –
Cn1nc2c(c1N)CN(c1c(F)cc3c(=O)c(C(=O)O)cn(C4CC4)c3c1F)C2 | – | 0.125 (≈ 0.311 µM) | –
CCn1cc(C(=O)O)c(=O)c2cc(F)c(N3Cc4n[nH]c(N)c4C3)c(F)c21 | – | 0.125 (≈ 0.333 µM) | –
O=C(O)c1cn(C2CC2)c2c(c1=O)C=C(F)C1N=NC(c3ccc(Br)cc3)=CN21 (stereo not given) | 0.25 | – | –
Cn1nc2c(c1N)CN(c1c(F)cc3c(=O)c(C(=O)O)cn(C4CC4)c3c1C(=O)C(F)F)C2 | – | 0.125 (≈ 0.271 µM) | –
COc1ccc(OC)c(O/N=C2/CCN(c3c(F)cc4c(=O)c(C(=O)O)cn(C5CC5)c4c3OC)CC2N)c1 (stereo not given) | – | – | MIC [3]: 0.008 µg/mL (≈ 0.0148 µM)
Nc1[nH]nc2c1CN(c1c(F)cc3c(=O)c(C(=O)O)cn(C4CC4)c3c1F)C2 | – | 0.125 (≈ 0.323 µM) | –
O=C(O)c1cn(C2CC2)c2c(c1=O)C=C(F)C1N=NC(c3cccc(Cl)c3)=CN21 (stereo not given) | 0.25 | – | –
O=C(O)c1cn(C2CC2)c2c(c1=O)C=C(F)C1N=NC(c3ccc(O)cc3)=CN21 (stereo not given) | 0.25 | – | –
Nc1cccc(C2=CN3c4c(c(=O)c(C(=O)O)cn4C4CC4)C=C(F)C3N=N2)c1 (stereo not given) | 0.25 | – | –
O=C(O)c1cn(C2CC2)c2c(c1=O)C=C(F)C1N=NC(c3ccc(Cl)cc3)=CN21 (stereo not given) | 0.25 | – | –
Nc1[nH]nc2c1CN(c1nc3c(cc1F)c(=O)c(C(=O)O)cn3-c1ccc(F)cc1F)C2 | – | 0.125 (≈ 0.283 µM) | –
Cn1nc2c(c1N)CN(c1nc3c(cc1F)c(=O)c(C(=O)O)cn3-c1ccc(F)cc1F)C2 | – | 0.125 (≈ 0.274 µM) | –
CC(=O)c1c(N2Cc3nn(C)c(N)c3C2)c(F)cc2c(=O)c(C(=O)O)cn(C3CC3)c12 | – | 0.125 (≈ 0.294 µM) | –

SMILES | MIC [1] [µg/mL] | MIC [2] [µg/mL] | other results
Cn1nc2c(c1N)CN(c1c(F)cc3c(=O)c(C(=O)O)cn(CCF)c3c1F)C2 | – | 0.125 (≈ 0.307 µM) | –
O=C(O)c1c[nH]c2cc(N3CCN([C@@H]4O[C@H](CO)[C@@H](O)[C@H](O)[C@H]4O)CC3)c(F)cc2c1=O | 0.5 | – | –
CC(=O)c1c(N2Cc3n[nH]c(N)c3C2)c(F)cc2c(=O)c(C(=O)O)cn(C3CC3)c12 | – | 0.125 (≈ 0.304 µM) | –
O=C(O)c1c[nH]c2cc(N3CCN([C@@H]4O[C@H](CO)[C@H](O)[C@H](O)[C@H]4O)CC3)c(F)cc2c1=O | 0.5 | – | –
O=C(O)c1cn(C2CC2)c2c(c1=O)C=C(F)C1N=NC(c3cccc([N+](=O)[O-])c3)=CN21 (stereo not given) | 0.25 | – | –
COc1cc(Br)ccc1O/N=C1/CCN(c2c(F)cc3c(=O)c(C(=O)O)cn(C4CC4)c3c2OC)CC1N (stereo not given) | – | – | MIC [3]: 0.008 µg/mL (≈ 0.0136 µM)
Nc1ccc(C2=CN3c4c(c(=O)c(C(=O)O)cn4C4CC4)C=C(F)C3N=N2)cc1 (stereo not given) | 0.25 | – | –
CCc1ccc(O/N=C2/CCN(c3c(F)cc4c(=O)c(C(=O)O)cn(C5CC5)c4c3OC)CC2N)cc1CC (stereo not given) | – | – | MIC [3]: 0.008 µg/mL (≈ 0.0149 µM)
Cc1ccccc1C1=CN2c3c(c(=O)c(C(=O)O)cn3C3CC3)C=C(F)C2N=N1 (stereo not given) | 0.25 | – | –
CCn1cc(C(=O)O)c(=O)c2cc(F)c(N3Cc4nn(C)c(N)c4C3)c(F)c21 | – | 0.125 (≈ 0.321 µM) | –
Cc1ccc(C2=CN3c4c(c(=O)c(C(=O)O)cn4C4CC4)C=C(F)C3N=N2)cc1 (stereo not given) | 0.25 | – | –
COc1ccccc1C1=CN2c3c(c(=O)c(C(=O)O)cn3C3CC3)C=C(F)C2N=N1 (stereo not given) | 0.25 | – | –
COc1ccc(C2=CN3c4c(c(=O)c(C(=O)O)cn4C4CC4)C=C(F)C3N=N2)cc1 (stereo not given) | 0.25 | – | –
Nc1[nH]nc2c1CN(c1nc3c(cc1F)c(=O)c(C(=O)O)cn3C1CC1)C2 | – | 0.125 (≈ 0.338 µM) | –
COc1c(N2CC/C(=N/Oc3ccccc3)C(N)C2)c(F)cc2c(=O)c(C(=O)O)cn(C3CC3)c12 (stereo not given) | – | – | MIC [3]: 0.008 µg/mL (≈ 0.0166 µM)
O=C(O)c1cn(C2CC2)c2c(c1=O)C=C(F)C1N=NC(c3ccc([N+](=O)[O-])cc3)=CN21 (stereo not given) | 0.25 | – | –
COc1c(N2C[C@@H]3CCCN[C@@H]3C2)c(F)cc2c(=O)c(C(=O)O)cn(C3CC3)c12 [MOXIFLOXACIN] | – | 0.06 (≈ 0.149 µM) | –
